ChEMBL document CHEMBL3244423, “Cardioselectivity as a function of molecular structure in beta-adrenoceptor blocking agents of the 1-(para-substituted aryloxy)-3-(isopropylamino)propan-2-ol type” (J Med Chem, 1978)
Activity calls are given as the source filed them. The rule behind the calls is not given here.

Tests used:
[1] = target: Beta-1 adrenergic receptor (Rattus norvegicus, UniProt P18090); assay: Antagonist activity at beta1 adrenergic receptor in isolated rat atria; conditions: read-out: pA2 (converted)
Chain of Beta-1 adrenergic receptor (P18090 whole entry): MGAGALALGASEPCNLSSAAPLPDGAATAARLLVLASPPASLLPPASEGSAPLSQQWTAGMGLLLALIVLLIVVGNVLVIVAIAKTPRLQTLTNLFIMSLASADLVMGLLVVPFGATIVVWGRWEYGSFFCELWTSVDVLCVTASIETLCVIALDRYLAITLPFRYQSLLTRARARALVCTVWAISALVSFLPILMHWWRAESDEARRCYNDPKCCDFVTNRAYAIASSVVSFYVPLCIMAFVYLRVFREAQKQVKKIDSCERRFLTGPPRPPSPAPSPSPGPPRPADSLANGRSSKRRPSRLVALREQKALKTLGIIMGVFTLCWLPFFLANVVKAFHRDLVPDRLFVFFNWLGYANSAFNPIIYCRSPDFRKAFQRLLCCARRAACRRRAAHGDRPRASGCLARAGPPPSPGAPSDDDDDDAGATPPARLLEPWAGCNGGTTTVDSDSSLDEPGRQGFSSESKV

[2] = Selectivity ratio of beta1 adrenergic receptor in isolated rat atria to beta2 adrenergic receptor in isolated rat stomach fundus
[3] = target: Beta-2 adrenergic receptor (Rattus norvegicus, UniProt P10608); assay: Antagonist activity at beta2 adrenergic receptor in isolated rat stomach fundus; conditions: read-out: pA2 (converted)
Chain of Beta-2 adrenergic receptor (P10608 whole entry): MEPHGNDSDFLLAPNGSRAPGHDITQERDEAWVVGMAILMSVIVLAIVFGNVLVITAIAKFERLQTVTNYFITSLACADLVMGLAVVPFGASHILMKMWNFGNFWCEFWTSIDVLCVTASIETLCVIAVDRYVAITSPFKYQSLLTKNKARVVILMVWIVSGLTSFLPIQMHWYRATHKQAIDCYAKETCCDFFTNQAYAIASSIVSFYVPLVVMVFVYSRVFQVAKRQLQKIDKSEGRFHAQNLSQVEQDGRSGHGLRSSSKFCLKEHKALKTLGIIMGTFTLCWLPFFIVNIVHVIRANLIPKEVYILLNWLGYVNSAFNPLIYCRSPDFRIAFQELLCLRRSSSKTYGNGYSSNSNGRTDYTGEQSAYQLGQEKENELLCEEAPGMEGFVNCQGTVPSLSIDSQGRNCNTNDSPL

Felis catus [4] = assay: In vivo antagonist activity at beta2 adrenergic receptor in cat assessed as vascular activity; assay type: organism-based; conditions: read-out: pA2 (converted)
Felis catus [5] = assay: In vivo antagonist activity at beta1 adrenergic receptor in cat assessed as myocardial activity; assay type: functional, organism-based; conditions: Myocardium, read-out: pA2 (converted)
Felis catus [6] = organism: Felis catus; assay: Selectivity ratio of antagonist activity at beta1 adrenergic receptor in cat to antagonist activity at beta2 adrenergic receptor in cat
[7] = target: Beta-2 adrenergic receptor (Rattus norvegicus) (UniProt P10608); assay: Agonist activity at beta2 adrenergic receptor in isolated rat stomach fundus in presence of propranolol
Chain of Beta-2 adrenergic receptor (Rattus norvegicus) (P10608 whole entry, looked up): as the sequence (P10608 whole entry) above

[8] = target: Beta-1 adrenergic receptor (Rattus norvegicus) (UniProt P18090); assay: Agonist activity at beta1 adrenergic receptor in isolated rat atria in presence of propranolol
Chain of Beta-1 adrenergic receptor (Rattus norvegicus) (P18090 whole entry, looked up): as the sequence (P18090 whole entry) above

| Structure (SMILES) | Kb [1] [µM] | Kb [3] [µM] | Activity [7] | Activity [8] | Selectivity ratio [2] | Kb (Felis catus [4]) [µM] | Kb (Felis catus [5]) [µM] | Selectivity ratio (Felis catus [6]) |
| --- | --- | --- | --- | --- | --- | --- | --- | --- |
| CC(C)NCC(O)COc1ccc2c(c1)CCCNC2=O (racemic) | 135 | 81.3 | – | – | 0.6 | – | – | – |
| CC(C)NCC(O)COc1ccc2c(c1)OCCNC2=O (racemic) | 18.2 | 45.7 | – | – | 2.5 | – | – | – |
| CC(C)NCC(O)COc1ccc2c(c1)CCCC(=O)N2 (racemic) | – | – | – | – | – | 10 | 10 | 1 |
| CC(C)NCC(O)COc1ccc2c(c1)OCC(=O)N2 (racemic) | – | – | – | – | – | 3.16 | 2.51 | 1.3 |
| C/C=C/c1ccc(OCC(O)CNC(C)C)c(OC)c1 (racemic) | 0.0501 | 1.26 | – | – | 25 | – | – | – |
| C/C=C\c1ccc(OCC(O)CNC(C)C)c(OC)c1 (racemic) | 0.2 | 0.02 | – | – | 0.1 | – | – | – |

Continued, in another order:

| Kb [1] [µM] | Kb [3] [µM] | Activity [7] | Activity [8] | Structure (SMILES) | Selectivity ratio [2] | Kb (Felis catus [4]) [µM] | Kb (Felis catus [5]) [µM] | Selectivity ratio (Felis catus [6]) |
| --- | --- | --- | --- | --- | --- | --- | --- | --- |
| 0.0631 | 0.0316 | – | – | CCc1ccc(OCC(O)CNC(C)C)cc1 (racemic) | 0.5 | – | – | – |
| 3.63 | 1000 | – | – | CNC(=O)c1ccc(OCC(O)CNC(C)C)cc1 (racemic) | 275 | – | – | – |
| 10 | 15.8 | – | – | CC(C)NCC(O)COc1ccc(C(N)=O)cc1 (racemic) | 1.6 | – | – | – |
| 0.0251 | 0.158 | – | – | CCCc1ccc(OCC(O)CNC(C)C)cc1.Cl (racemic) | 6.5 | – | – | – |
| > 316 | > 316 | inactive | inactive | CC(C)NCC(O)COc1ccc(CC2(C)OCCO2)cc1 (racemic) | – | – | – | – |
| 0.339 | – | – | – | CC(=O)Nc1ccc(OCC(O)CNC(C)C)cc1 (stereo not given) [PRACTOLOL] | – | – | – | – |
